Drawing on PubChem BioAssay AID1963848 (Molecular Pharmacology Branch, DTP, NCI, 2024), this text covers IC50 and viability, T/C for four compounds.

The test system of the assay is 379773-124-R-J2-PDC spheroid viability. The assay can be described thus: Anticancer human tumor 379773-124-R-J2-PDC patient-derived endometrial carcinoma cell line growth inhibition [POLQ]. Particulars: spheroids with HUVEC and MSC; for viability, T/C: stronger effect = lower value. In short, it runs like this: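 Three-cell-type spheroids modelling solid tumor plus stroma served as the readout system; POL inhibitors were tested individually and in combination, concentration ranges set by clinical Cmax where known.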

Values joined by “and” are separate entries in the source; they are usually repeats but may differ in a detail not shown here. Equal values may be shown once.

A word on the IC50: it is the concentration that gives 50% inhibition. For orientation: viability, T/C means the ratio of treated to control.
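Note: spheroids exposed to drugs for seven days before readout.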
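Throughout, for viability, T/C: percent viability relative to DMSO vehicle control taken as 100%.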

For the compound `CCc1cc2c(N3CCc4c(cc(Cn5ccnc5)cc4-c4cn(C)nc4C(F)(F)F)C3=O)cc(C)nc2c(OC)n1` + Cc1cccc(N(C)C(=O)C2C(O)CCN2c2nc(C)cc(C(F)(F)F)c2C#N)c1, the half-inhibitory concentration (IC50) runs as follows: (curve of first compound, second compound 0.0316 µM) greater than 10 µM; (curve of first compound, second compound 0.1 µM) greater than 10 µM; (curve of first compound, second compound 0.316 µM) greater than 10 µM; (curve of first compound, second compound 1 µM) 9 µM; (curve of first compound, second compound 3.16 µM) 6.79 µM; (curve of first compound, second compound 10 µM) 1.93 µM. For the same compound, the viability, T/C was 77.2% (second compound 0.0316 µM, first compound 0.0316 µM); 80% (second compound 0.0316 µM, first compound 0.1 µM); 61.9% (second compound 0.0316 µM, first compound 0.316 µM); 62.4% (second compound 0.0316 µM, first compound 1 µM); 64% (second compound 0.0316 µM, first compound 3.16 µM); 48.9% (second compound 0.0316 µM, first compound 10 µM). Moreover, the viability, T/C (second compound 0.1 µM, first compound 0.0316 µM) was 92.7%; the viability, T/C (second compound 0.1 µM, first compound 0.1 µM) is 69.5%; the viability, T/C (second compound 0.1 µM, first compound 0.316 µM) was 56.1%; the viability, T/C (second compound 0.1 µM, first compound 1 µM) is 58.4%; the viability, T/C (second compound 0.1 µM, first compound 3.16 µM) is 55.4%; the viability, T/C (second compound 0.1 µM, first compound 10 µM) is 46.9%. Moreover, the viability, T/C by setting is: (second compound 0.316 µM, first compound 0.0316 µM) 78.9%; (second compound 0.316 µM, first compound 0.1 µM) 72.9%; (second compound 0.316 µM, first compound 0.316 µM) 67.8%; (second compound 0.316 µM, first compound 1 µM) 59.4%; (second compound 0.316 µM, first compound 3.16 µM) 60.8%; (second compound 0.316 µM, first compound 10 µM) 51.4%. For the same compound, the viability, T/C was 77.3% (second compound 1 µM, first compound 0.0316 µM); 68.2% (second compound 1 µM, first compound 0.1 µM); 68.1% (second compound 1 µM, first compound 0.316 µM); 59% (second compound 1 µM, first compound 1 µM); 62.4% (second compound 1 µM, first compound 3.16 µM); 46.6% (second compound 1 µM, first compound 10 µM). In addition, the viability, T/C reads like this: (second compound 3.16 µM, first compound 0.0316 µM) 76.4%; (second compound 3.16 µM, first compound 0.1 µM) 73.6%; (second compound 3.16 µM, first compound 0.316 µM) 61%; (second compound 3.16 µM, first compound 1 µM) 53.9%; (second compound 3.16 µM, first compound 3.16 µM) 51.9%; (second compound 3.16 µM, first compound 10 µM) 48.1%. Further, the viability, T/C runs as follows: (second compound 10 µM, first compound 0.0316 µM) 70.7%; (second compound 10 µM, first compound 0.1 µM) 64%; (second compound 10 µM, first compound 0.316 µM) 61.5%; (second compound 10 µM, first compound 1 µM) 49.2%; (second compound 10 µM, first compound 3.16 µM) 50.9%; (second compound 10 µM, first compound 10 µM) 41.2%.

For the compound `C=CC(=O)N1CCN(c2nc(=O)n(-c3c(C)ccnc3C(C)C)c3nc(-c4c(O)cccc4F)c(F)cc23)C(C)C1` (stereo not drawn), the viability, T/C runs as follows: (compound 0.0316 µM) 97.8% and 95.1% and 86.4%; (compound 0.1 µM) 86.7% and 106% and 91.7%; (compound 0.316 µM) 70% and 103% and 89.9%; (compound 1 µM) 86.1% and 93.1% and 87.7%; (compound 3.16 µM) 88.5% and 95.5% and 97.6%; (compound 10 µM) 78.4% and 95.8% and 85.6%. Also, under “curve of compound”, the half-inhibitory concentration (IC50) is greater than 10 µM.

On to `COc1cc2cc(C(=O)CCC(=O)O)sc2cc1OC`, for which the viability, T/C is 89.3% and 91.6% (2×) (compound 0.0316 µM); 85.4% and 96.8% and 107% (compound 0.1 µM); 85.8% and 90.2% and 80.9% (compound 0.316 µM); 94.6% and 96.7% and 94% (compound 1 µM); 105% and 95.3% and 92.9% (compound 3.16 µM); 91.6% and 79.1% and 73.2% (compound 10 µM). The 50% inhibitory concentration (IC50) (curve of compound) is greater than 10 µM.

Turning to `C#Cc1c(F)ccc2cc(O)cc(-c3ncc4c(N5CC6CCC(C5)N6)nc(OCC56CCCN5CC(F)C6)nc4c3F)c12` (stereo not drawn), the viability, T/C reads like this: (compound 0.0316 µM) 89.7% and 98.6% and 95.6%; (compound 0.1 µM) 75.8% and 86.8% and 84.9%; (compound 0.316 µM) 76.9% and 105% and 79.6%; (compound 1 µM) 82.7% and 98.4% and 90.6%; (compound 3.16 µM) 87.1% and 98.4% and 87.7%; (compound 10 µM) 81.7% and 93% and 90.7%. For the same compound, the concentration for half-maximal inhibition (IC50) (curve of compound) was greater than 10 µM.
